From patent US20160002204A1 (Board of Regents, The University of Texas System, priority 2014, published 2016) come the findings set out here.

For test [1], the target named is T1, GLS1 (purified recombinant human GAC) (Homo sapiens, UniProt O94925).
T1 sequence (O94925 55-598 isoform O94925-3 limits assumed): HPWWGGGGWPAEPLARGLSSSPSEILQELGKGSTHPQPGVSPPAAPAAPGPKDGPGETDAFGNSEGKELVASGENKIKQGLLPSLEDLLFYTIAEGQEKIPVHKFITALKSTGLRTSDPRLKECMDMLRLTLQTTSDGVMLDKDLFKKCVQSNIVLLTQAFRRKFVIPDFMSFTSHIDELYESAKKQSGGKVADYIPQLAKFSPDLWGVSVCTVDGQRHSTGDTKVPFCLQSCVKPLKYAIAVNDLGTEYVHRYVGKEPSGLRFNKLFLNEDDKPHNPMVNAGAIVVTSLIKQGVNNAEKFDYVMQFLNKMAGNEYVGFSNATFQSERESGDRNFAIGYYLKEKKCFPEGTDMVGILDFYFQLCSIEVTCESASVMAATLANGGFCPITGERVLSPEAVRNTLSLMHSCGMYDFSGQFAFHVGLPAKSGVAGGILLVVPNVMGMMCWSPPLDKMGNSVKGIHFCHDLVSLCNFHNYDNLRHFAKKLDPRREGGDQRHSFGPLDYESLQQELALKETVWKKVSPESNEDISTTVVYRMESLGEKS
Put plainly: GLS1 enzymatic activity assay (dual-coupled, Amplex UltraRed/resorufin). It counts as biochemical. An outline of the steps:
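Recombinant human GAC (2 nM) preincubated with 50 mM potassium phosphate, then inhibitor (10 min each, RT); 1 mM glutamine, pH 7.4 Hepes buffer, 1% DMSO. Glutamate coupled via glutamate oxidase/HRP to resorufin (Ex 530/Em 590), kinetic or 20-min endpoint; IC50 by four-parameter logistic fit.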

In another test the test system is A549 cells. Description: A549 proliferation (viability) assay, Cell Titer Fluor, 72 hours. It counts as cell-based. As to conditions: Homo sapiens. An outline of the steps:
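A549 cells in RPMI 1640 with 10% dialyzed FBS were seeded at 1000 cells/well, grown 24 h, then exposed to compound (0.5% DMSO final) for 72 h at 37 °C, 5% CO2. Viability was read by Cell Titer Fluor fluorescence; EC50 from four-parameter logistic fit.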

A value given as a limit tells only on which side of the number the result lay.

Usually IC50 stands for the concentration at which inhibition is half-maximal. A word on the EC50: it is the concentration giving half of the maximal effect. Lower therefore signals greater potency. Turning to `O=C(CC1CCCCC1)Nc1ccn(CCC(F)Cn2cc(C(=O)NCc3cc(OC(F)(F)F)ccc3F)nn2)c(=O)c1` (stereo not shown) [Example 176, 1-{4-[4-(2-cyclohexylacetamido)-2-oxo-1,2-dihydropyridin-1-yl]-2-fluorobutyl}-N-{[2-fluoro-5-(trifluoromethoxy)phenyl]methyl}-1H-1,2,3-triazole-4-carboxamide], the IC50 in test [1] is below 100 nM. This compound displayed an EC50 in the test on A549 cells below 100 nM.
As to `Cc1ccc(CNC(=O)c2cn(CC(F)CCn3ccc(NC(=O)CC4CCCCC4)cc3=O)nn2)cn1` (stereo not shown) [Example 177, 1-{4-[4-(2-cyclohexylacetamido)-2-oxo-1,2-dihydropyridin-1-yl]-2-fluorobutyl}-N-[(6-methylpyridin-3-yl)methyl]-1H-1,2,3-triazole-4-carboxamide], the IC50 in test [1] was below 100 nM. The 50% effective concentration (EC50) with A549 cells was below 100 nM.
Turning to `O=C(CC1CCCCC1)Nc1ccn(CCC(F)Cn2cc(C(=O)NCc3cc(C(F)(F)F)ccn3)nn2)c(=O)c1` (stereo not shown) [Example 178, 1-{4-[4-(2-cyclohexylacetamido)-2-oxo-1,2-dihydropyridin-1-yl]-2-fluorobutyl}-N-{[4-(trifluoromethyl)pyridin-2-yl]methyl}-1H-1,2,3-triazole-4-carboxamide], the IC50 in test [1] was below 100 nM. Also, the EC50 in the test on A549 cells is below 100 nM.
Consider `O=C(CC1CCS(=O)(=O)CC1)Nc1ccn(CCCCn2cc(C(=O)NCc3cccc(OC(F)(F)F)c3)nn2)c(=O)c1` [Example 179, 1-(4-{4-[2-(1,1-dioxo-1$l^6-thian-4-yl)acetamido]-2-oxo-1,2-dihydropyridin-1-yl}butyl)-N-{[3-(trifluoromethoxy)phenyl]methyl}-1H-1,2,3-triazole-4-carboxamide], for which the IC50 in test [1] is below 100 nM. The same compound returned an EC50 in the test on A549 cells of 500 to 5000 nM.
As to `O=C(Cc1ccccc1)Nc1ccn(CCC(F)Cn2cc(C(=O)NCc3cccc(OC(F)(F)F)c3)nn2)c(=O)c1F` (stereo not shown) [Example 180], the IC50 in test [1] was below 100 nM. The same compound registered an EC50 in the test on A549 cells below 100 nM.
On to `O=C(CC1CCCCC1)Nc1ccn(CCCCn2cc(C(=O)NCc3cc(Cl)ccc3F)nn2)c(=O)c1` [Example 181, N-[(5-chloro-2-fluorophenyl)methyl]-1-{4-[4-(2-cyclohexylacetamido)-2-oxo-1,2-dihydropyridin-1-yl]butyl}-1H-1,2,3-triazole-4-carboxamide], for which the IC50 in test [1] was below 100 nM. In the test on A549 cells, the EC50 was in the range of 100 to 500 nM.
In the same order, the values of `O=C(Cc1ccccn1)Nc1ccn(CCC(F)Cn2cc(C(=O)NCc3cc(OC(F)(F)F)ccc3F)nn2)c(=O)c1` (stereo not shown) [Example 182, 1-(2-fluoro-4-{2-oxo-4-[2-(pyridin-2-yl)acetamido]-1,2-dihydropyridin-1-yl}butyl)-N-{[2-fluoro-5-(trifluoromethoxy)phenyl]methyl}-1H-1,2,3-triazole-4-carboxamide] are below 100 nM and 100 to 500 nM.
On to `O=C(Cc1ccccn1)Nc1ccn(CCC(F)Cn2cc(C(=O)NCc3cccc(C(F)(F)F)c3)nn2)c(=O)c1` (stereo not shown) [Example 183, 1-(2-fluoro-4-{2-oxo-4-[2-(pyridin-2-yl)acetamido]-1,2-dihydropyridin-1-yl}butyl)-N-{[3-(trifluoromethyl)phenyl]methyl}-1H-1,2,3-triazole-4-carboxamide], for which the half-inhibitory concentration (IC50) in test [1] was below 100 nM. This compound also gave an EC50 with A549 cells of 500 to 5000 nM.
Turning to `CO[C@H](C(=O)Nc1ccn(CCC(F)Cn2cc(C(=O)NCc3cccc(OC(F)(F)F)c3)nn2)c(=O)c1)c1ccccc1` (stereo partly drawn) [Example 184, 1-(2-fluoro-4-{4-[(2S)-2-methoxy-2-phenylacetamido]-2-oxo-1,2-dihydropyridin-1-yl}butyl)-N-{[3-(trifluoromethoxy)phenyl]methyl}-1H-1,2,3-triazole-4-carboxamide], the IC50 in test [1] is below 100 nM. In the test with A549 cells, this compound displayed an EC50 below 100 nM.
With `COCCOc1cccc(CC(=O)Nc2ccn(CCC(F)Cn3cc(C(=O)NCc4cccc(OC(F)(F)F)c4)nn3)c(=O)c2)c1` (stereo not shown) [Example 185, 1-[2-fluoro-4-(4-{2-[3-(2-methoxyethoxy)phenyl]acetamido}-2-oxo-1,2-dihydropyridin-1-yl)butyl]-N-{[3-(trifluoromethoxy)phenyl]methyl}-1H-1,2,3-triazole-4-carboxamide], in test [1], the IC50 is below 100 nM. The compound also returned an EC50 with A549 cells of 500 to 5000 nM.
As for `CO[C@@H](C(=O)Nc1ccn(CCC(F)Cn2cc(C(=O)NCc3cccc(OC(F)(F)F)c3)nn2)c(=O)c1)c1ccccc1` (stereo partly drawn) [Example 186, 1-(2-fluoro-4-{4-[(2R)-2-methoxy-2-phenylacetamido]-2-oxo-1,2-dihydropyridin-1-yl}butyl)-N-{[3-(trifluoromethoxy)phenyl]methyl}-1H-1,2,3-triazole-4-carboxamide], in test [1], the IC50 was below 100 nM. In the test with A549 cells, this compound displayed a half-maximal effective concentration (EC50) below 100 nM.
As for `O=C(CC1CCCCO1)Nc1ccn(CCC(F)Cn2cc(C(=O)NCc3cccc(OC(F)(F)F)c3)nn2)c(=O)c1` (stereo not shown) [Example 187, 1-(2-fluoro-4-{4-[2-(oxan-2-yl)acetamido]-2-oxo-1,2-dihydropyridin-1-yl}butyl)-N-{[3-(trifluoromethoxy)phenyl]methyl}-1H-1,2,3-triazole-4-carboxamide], in test [1], the IC50 was below 100 nM. Besides, the EC50 with A549 cells is below 100 nM.
Take `N#CCC(=O)Nc1ccn(CCC(F)Cn2cc(C(=O)NCc3cccc(OC(F)(F)F)c3)nn2)c(=O)c1` (stereo not shown) [Example 188, 1-{4-[4-(2-cyanoacetamido)-2-oxo-1,2-dihydropyridin-1-yl]-2-fluorobutyl}-N-{[3-(trifluoromethoxy)phenyl]methyl}-1H-1,2,3-triazole-4-carboxamide]: the IC50 in test [1] fell in the range of 500 to 5000 nM. This compound also came in with an EC50 in the test on A549 cells above 5000 nM.
In the same order, the values of `Cn1ccnc1CC(=O)Nc1ccn(CCC(F)Cn2cc(C(=O)NCc3cccc(OC(F)(F)F)c3)nn2)c(=O)c1` (stereo not shown) [Example 189, 1-(2-fluoro-4-{4-[2-(1-methyl-1H-imidazol-2-yl)acetamido]-2-oxo-1,2-dihydropyridin-1-yl}butyl)-N-{[3-(trifluoromethoxy)phenyl]methyl}-1H-1,2,3-triazole-4-carboxamide] are 100 to 500 nM and above 5000 nM.
On to `O=C(CC1CCCCC1)Nc1ccn(CCCCn2cc(C(=O)NCc3ccccn3)nn2)c(=O)c1` [Example 190, 1-{4-[4-(2-cyclohexylacetamido)-2-oxo-1,2-dihydropyridin-1-yl]butyl}-N-(pyridin-2-ylmethyl)-1H-1,2,3-triazole-4-carboxamide], for which the IC50 in test [1] was below 100 nM. The EC50 with A549 cells fell in the range of 500 to 5000 nM.
In the same order, the values of `O=C(CC1CCCCC1)Nc1ccn(CCCCn2cc(C(=O)NCc3cccnc3)nn2)c(=O)c1` [Example 191, 1-{4-[4-(2-cyclohexylacetamido)-2-oxo-1,2-dihydropyridin-1-yl]butyl}-N-(pyridin-3-ylmethyl)-1H-1,2,3-triazole-4-carboxamide] are below 100 nM and 100 to 500 nM.
In the same order, the values of `O=C(CC1CCCCC1)Nc1ccn(CCCCn2cc(C(=O)NC(CO)c3ccccc3)nn2)c(=O)c1` (stereo not shown) [Example 192, 1-{4-[4-(2-cyclohexylacetamido)-2-oxo-1,2-dihydropyridin-1-yl]butyl}-N-(2-hydroxy-1-phenylethyl)-1H-1,2,3-triazole-4-carboxamide] are 100 to 500 nM and above 5000 nM.
